Consider 11 molecules from patent US11944605B2, “Rapamycin analogs and uses thereof” (Janssen Pharmaceutica NV, priority 2018, dated 2024).

≈ marks a conversion by molar mass, not a printed value.

Data set [1] has as its system pS6K1 (p-p70 S6 Kinase (Thr389)) in MCF-7 cells. Description: AlphaLISA Ultra pS6K1 Assay. The format is cell-based. The conditions noted are these: Homo sapiens, 1.5 h; MCF7 cells, 90 min. The method, boiled down: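 AlphaLISA Ultra read-out (acceptor beads 2 h, then donor beads 2 h) on thawed lysates of MCF-7 cells. Cells had 20–24 h after seeding and a 2 h medium change, then 90 min of compound exposure at 0.5% final DMSO, with lysates stored at −80 °C.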
(In general: In Alpha technology, singlet oxygen from a donor bead excites a nearby acceptor bead.)

Data set [2] has as its system pAKT (p-Akt 1/2/3 (Ser473)) in MCF-7 cells. The experiment in a line: AlphaLISA Ultra pAKT Assay. The format is cell-based. The conditions noted are these: Homo sapiens, 1.5 h; MCF7 cells, 90 min. The method, then: AlphaLISA Ultra pAKT Assay
1. MCF-7 cells in Corning 3701 plate and incubate for 20˜24 hour.
16,000˜20,000 cells will be seeded in 36 μL medium per well.
2. Change the culture medium with fresh medium and incubate for another 90 minutes.
3. […]
4. Aspirate […] by HAMILTON, 10 μL rest per well.
5. Add 10 μL 2× lysis buffer using HAMILTON; total volume in wells is 20 μL. Allow cells to shake for 30 min. Cover plate by plastic foil and store plate at −80° C. up to analysis.
6. Thaw cell lysate at RT and transfer 10 ul lysate to assay plate (Optiplate-384).
7. Add 5 μL acceptor beads into assay plate and incubation for 2 hours
8. Add 5 μL donor beads and incubation for 2 hours
9. Count the plate by EnSpire Multimode Plate Reader

A short description of data set [3]: Solubility in 100 mM phosphate buffer (pH 7.4). Format: physicochemical. The conditions noted are these: pH 7.4, aqueous buffer. The source says:
The compound numbers correspond to the compound numbers in Table 1.

Data set [4] deals with mTORC1 over mTORC2. The experiment in a line: mTORC1 selectivity over mTORC2 at 24 hrs (Western blot based pS6K1 and pAKT assay). The format is cell-based. (In general: A western blot detects proteins with antibodies after separation by electrophoresis.)

In general, IC50 refers to the point on the concentration scale where inhibition reaches its midpoint. The low end stands for greater potency, the high end for weaker potency. The term solubility denotes the concentration that dissolves in the medium under given conditions. A high value points to much dissolved substance. `CO[C@@H]1C[C@H](C[C@@H](C)[C@@H]2CC(=O)[C@H](C)/C=C(\C)[C@@H](O)[C@@H](OC)C(=O)[C@H](C)C[C@H](C)/C=C/C=C/C=C(\C)C(OCC(CO)CO)C[C@@H]3CC[C@@H](C)[C@@](O)(O3)C(=O)C(=O)N3CCCC[C@H]3C(=O)O2)CC[C@H]1O` (stereo partly drawn) [I-31, (21E,23E,25E,26E,31R,32S,33R,34R,36R,38S,41S,42R,43R,53S)-42, 53-dihydroxy-40-[3-hydroxy-2-(hydroxymethyl)propoxy]-41-[(1S)-2-[(1S,3R, 4R)-4-hydroxy-3-methoxy-cyclohexyl]-1-methyl-ethyl]-43-methoxy-31,32,33,34,44,45-hexamethyl-65, 66-dioxa-54-azatricyclohexatriaconta-21,23,25(44),26(45)-tetraene-46,47,48,49,50-pentone]: the IC50 in data set [1] is 0.1 to 1 nM; in data set [2], at least 100 nM. In addition, the solubility in data set [3] is above 60 µM. In data set [4], the “mTORC1 selective @ 24 hrs” value is given as “YES”.
Consider `CO[C@@H]1C[C@H](C[C@@H](C)[C@@H]2CC(=O)[C@H](C)/C=C(\C)[C@@H](O)[C@@H](OC)C(=O)[C@H](C)C[C@H](C)/C=C/C=C/C=C(\C)C(OCCOCCOCCO)C[C@@H]3CC[C@@H](C)[C@@](O)(O3)C(=O)C(=O)N3CCCC[C@H]3C(=O)O2)CC[C@H]1OCCO` (stereo partly drawn) [I-32, (21E,23E,25E,26E,36R,37S,38R,39R,40S,43S,45S,47R,48R,57R)-47, 57-dihydroxy-44-[2-[2-(2-hydroxyethoxy)ethoxy]ethoxy]-45-[(1R)-2-[(1S,2R, 3R)-3-(2-hydroxyethoxy)-2-methoxy-cyclohexyl]-1-methyl-ethyl]-48-methoxy-36,37,38,39,49,50-hexamethyl-68, 69-dioxa-58-azatricyclohexatriaconta-21,23,25(49),26(50)-tetraene-51,52,53,54,55-pentone], for which the figures for the 50% inhibitory concentration (IC50) in data set [1] and in data set [2] were 0.1 to 1 nM and at least 100 nM, respectively. In data set [3], this molecule displayed a solubility above 60 µM. Besides, the “mTORC1 selective @ 24 hrs” value in data set [4] is “YES”.
As to `COCCOCCOC1C[C@@H]2CCC(C)C(O)(O2)C(=O)C(=O)N2CCCC[C@H]2C(=O)OC(C(C)CC2CCC(O)C(OC)C2)CC(=O)C(C)/C=C(\C)C(O)C(OC)C(=O)C(C)CC(C)/C=C/C=C/C=C/1C` (stereo partly drawn) [I-17], the IC50 was 0.1 to 1 nM in data set [1] and at least 100 nM in data set [2]. Further, in data set [3], the solubility is 30 to 60 µM (≈ 30.1 to 60.1 µg/mL). The “mTORC1 selective @ 24 hrs” value in data set [4] was “YES”.
On the same counts, the results for `CO[C@@H]1C[C@H](C[C@@H](C)[C@@H]2CC(=O)[C@H](C)/C=C(\C)[C@@H](O)[C@@H](OC)C(=O)[C@H](C)C[C@H](C)/C=C/C=C/C=C(\C)C(OCCOCCOCCOCCOCCOCCO)C[C@@H]3CC[C@@H](C)[C@@](O)(O3)C(=O)C(=O)N3CCCC[C@H]3C(=O)O2)CC[C@H]1O` (stereo partly drawn) [I-33, (21E,23E,25E,26E,40R,41S,42R,43R,45R,47S,50S,51R,52R, 61S)-51,6I-dihydroxy-49-[2-[2-[2-[2-[2-(2-hydroxyethoxy)ethoxy]ethoxy]ethoxy]ethoxy]ethoxy]-50-[(1S)-2-[(1S, 3R,4R)-4-hydroxy-3-methoxy-cyclohexyl]-1-methyl-ethyl]-52-methoxy-40, 41,42,43,53,54-hexamethyl-72,73-dioxa-62-azatricyclohexatriaconta-21, 23,25(53),26(54)-tetraene-55,56,57,58,59-pentone] are 1 to 10 nM, at least 100 nM, above 60 µM and “YES”.
Turning to `CO[C@@H]1C[C@H](C[C@@H](C)[C@@H]2CC(=O)[C@H](C)/C=C(\C)[C@@H](O)[C@@H](OC)C(=O)[C@H](C)C[C@H](C)/C=C/C=C/C=C(\C)C(OCCCO)C[C@@H]3CC[C@@H](C)[C@@](O)(O3)C(=O)C(=O)N3CCCC[C@H]3C(=O)O2)CC[C@H]1O` (stereo partly drawn) [I-34], the IC50 is 0.1 to 1 nM in data set [1] and at least 100 nM in data set [2]. Also, the solubility in data set [3] was in the range of 30 to 60 µM (≈ 28.7 to 57.5 µg/mL). For the same molecule, the “mTORC1 selective @ 24 hrs” value in data set [4] is recorded as “NO”.
On to `CO[C@@H]1C[C@H](C[C@@H](C)[C@@H]2CC(=O)[C@H](C)/C=C(\C)[C@@H](O)[C@@H](OC)C(=O)[C@H](C)C[C@H](C)/C=C/C=C/C=C(\C)C(OCCOCCO)C[C@@H]3CC[C@@H](C)[C@@](O)(O3)C(=O)C(=O)N3CCCC[C@H]3C(=O)O2)CC[C@H]1O` (stereo partly drawn) [I-37], for which the IC50 in data set [1] was 1 to 10 nM; in data set [2], at least 100 nM. The solubility in data set [3] was 30 to 60 µM (≈ 29.6 to 59.3 µg/mL). Further, in data set [4], the “mTORC1 selective @ 24 hrs” value is given as “YES”.
On the same counts, the results for `CO[C@@H]1C[C@H](C[C@@H](C)[C@@H]2CC(=O)[C@H](C)/C=C(\C)[C@@H](O)[C@@H](OC)C(=O)[C@H](C)C[C@H](C)/C=C/C=C/C=C(\C)C(OCC3COCCOCCOCCOCCO3)C[C@@H]3CC[C@@H](C)[C@@](O)(O3)C(=O)C(=O)N3CCCC[C@H]3C(=O)O2)CC[C@H]1O` (stereo partly drawn) [I-3] are 0.1 to 1 nM, at least 100 nM, 30 to 60 µM (≈ 34 to 67.9 µg/mL) and “YES”.
On the same counts, the results for `COCCOCCOCCOC1C[C@@H]2CC[C@@H](C)[C@@](O)(O2)C(=O)C(=O)N2CCCC[C@H]2C(=O)O[C@H]([C@H](C)C[C@@H]2CC[C@@H](O)[C@H](OC)C2)CC(=O)[C@H](C)/C=C(\C)[C@@H](O)[C@@H](OC)C(=O)[C@H](C)C[C@H](C)/C=C/C=C/C=C/1C` (stereo partly drawn) [I-27, (22E,24E,26E,27E,35R,36S,37R,38R,39S,42S,44S,46R,47R,56R)-46,56-dihydroxy-44-[(1R)-2-[(1S, 2R,3R)-3-hydroxy-2-methoxy-cyclohexyl]-1-methyl-ethyl]-47-methoxy-43-[2-[2-(2-methoxyethoxy)ethoxy]ethoxy]-35,36,37,38,48,49-hexamethyl-66,67-dioxa-57-azatricyclohexatriaconta-22, 24,26(48),27(49)-tetraene-50,51,52,53,54-pentone] are 0.1 to 1 nM, at least 100 nM, 30 to 60 µM (≈ 31.4 to 62.8 µg/mL) and “YES”.
For `CO[C@@H]1C[C@H](C[C@@H](C)[C@@H]2CC(=O)[C@H](C)/C=C(\C)[C@@H](O)[C@@H](OC)C(=O)[C@H](C)C[C@H](C)/C=C/C=C/C=C(\C)C(OCCO)C[C@@H]3CC[C@@H](C)[C@@](O)(O3)C(=O)C(=O)N3CCCC[C@H]3C(=O)O2)CC[C@H]1O` (stereo partly drawn) [I-38, (21E,23E,25E,26E,30R,31S,32R,33R,35R,37S,40S,41R,42R,51S)-41, 51-dihydroxy-39-(2-hydroxyethoxy)-40-[(1S)-2-[(1S,3R,4R)-4-hydroxy-3-methoxy-cyclohexyl]-1-methyl-ethyl]-42-methoxy-30, 31,32,33,43,44-hexamethyl-62,63-dioxa-52-azatricyclohexatriaconta-21, 23,25(43),26(44)-tetraene-45,46,47,48,49-pentone], in that order: below 0.1 nM, at least 100 nM, 30 to 60 µM (≈ 28.3 to 56.7 µg/mL) and “NO”.
For the molecule `CO[C@@H]1C[C@H](C[C@@H](C)[C@@H]2CC(=O)[C@H](C)/C=C(\C)[C@@H](O)[C@@H](OC)C(=O)[C@H](C)C[C@H](C)/C=C/C=C/C=C(\C)[C@H](OCCOCCO)C[C@@H]3CC[C@@H](C)[C@@](O)(O3)C(=O)C(=O)N3CCCC[C@H]3C(=O)O2)CC[C@H]1O` [I-19], the IC50 in data set [1] is below 0.1 nM; in data set [2], at least 100 nM. This molecule came in with a solubility in data set [3] of 30 to 60 µM (≈ 29.6 to 59.3 µg/mL). Besides, the “mTORC1 selective @ 24 hrs” value in data set [4] is reported as “YES”. In addition, the “selectivity for mTORC1 over mTORC2 as measured by the impact on pAKT” value in data set [4] (extended periods of time (e.g., 24 hours)) is reported as “marked selectivity”.
With `CO[C@@H]1C[C@H](C[C@@H](C)[C@@H]2CC(=O)[C@H](C)/C=C(\C)[C@@H](O)[C@@H](OC)C(=O)[C@H](C)C[C@H](C)/C=C/C=C/C=C(\C)C(OCC3COCCOCCOCCOCCOCCO3)C[C@@H]3CC[C@@H](C)[C@@](O)(O3)C(=O)C(=O)N3CCCC[C@H]3C(=O)O2)CC[C@H]1O` (stereo partly drawn) [I-1], the results for the IC50 in data set [1] and in data set [2] were 0.1 to 1 nM and at least 100 nM, respectively. In data set [3], this molecule gave a solubility of 30 to 60 µM (≈ 35.3 to 70.6 µg/mL). The “mTORC1 selective @ 24 hrs” value in data set [4] was “YES”.
